# Source: PubChem BioAssay (NCI)
#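 Briefly, cells in 96-well plates were exposed to five compound concentrations for 48 h, and endpoints were estimated by linear interpolation. GI50 = concentration required for 50% inhibition of growth. At the TGI there is no net growth.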
# What was measured:
# Test in all cases: NCI tumour cell line growth inhibition, 48 h
# [1] = tested on: K-562 leukemia
# [2] = tested on: EKVX NSCLC
# [3] = tested on: OVCAR-8 ovarian
# [4] = tested on: SR leukemia
# [5] = tested on: OVCAR-4 ovarian
# [6] = tested on: U251 CNS
# [7] = tested on: UO-31 renal
# [8] = tested on: UACC-257 melanoma
# [9] = tested on: UACC-62 melanoma
# [10] = tested on: SK-MEL-5 melanoma
# [11] = tested on: CCRF-CEM leukemia
# [12] = tested on: T-47D breast
# [13] = tested on: NCI-H460 lung
# [14] = tested on: COLO 205 colon
# [15] = tested on: MCF7 breast
# [16] = tested on: DU-145 prostate
# [17] = tested on: HCT-15 colon
# [18] = tested on: A549 NSCLC
# [19] = tested on: SNB-75 CNS
# [20] = tested on: RPMI-8226 leukemia
# [21] = tested on: NCI-H226 lung
# [22] = tested on: SK-OV-3 ovarian
# [23] = tested on: 786-0 renal
# [24] = tested on: SF-539 CNS
# [25] = tested on: SNB-19 CNS
# [26] = tested on: HT29 colon
# [27] = tested on: PC-3 prostate
# [28] = tested on: NCI/ADR-RES ovarian
# [29] = tested on: HCT-116 colon
# [30] = tested on: OVCAR-3 ovarian
# [31] = tested on: ACHN renal
# [32] = tested on: SK-MEL-2 melanoma
# [33] = tested on: RXF 393 renal
# [34] = tested on: HOP-92 NSCLC
# [35] = tested on: HS 578T breast
# [36] = tested on: SN12C renal
# [37] = tested on: MALME-3M melanoma
# [38] = tested on: TK-10 renal
# [39] = tested on: HL-60(TB) leukemia
# [40] = tested on: MDA-MB-435
# [41] = tested on: SW-620 colon
# [42] = tested on: OVCAR-5 ovarian
# [43] = tested on: SK-MEL-28 melanoma
# [44] = tested on: HCC-2998 colon
# [45] = tested on: NCI-H522 lung
# [46] = tested on: A498 renal
# [47] = tested on: LOX IMVI melanoma
# [48] = tested on: KM12 colon
# [49] = tested on: NCI-H23 lung
# [50] = tested on: MOLT-4 leukemia
# [51] = tested on: BT-549 breast
# [52] = tested on: IGROV1 ovarian
# [53] = tested on: MDA-MB-231 breast
# [54] = tested on: CAKI-1 renal
# [55] = tested on: HOP-62 NSCLC
# [56] = tested on: SF-295 CNS
smiles,measurement,setting,value
O=C(NCCc1ccccc1)Nc1ccc2cc3ccc(NC(=O)NCCc4ccccc4)cc3nc2c1,GI50,[1],392 nM
same,TGI,[1],35700 nM
same,GI50,[2],3490 nM
same,TGI,[2],21800 nM
same,GI50,[3],807 nM
same,TGI,[3],2700 nM
same,GI50,[4],392 nM
same,TGI,[4],16000 nM
same,GI50,[5],1480 nM
same,TGI,[5],3480 nM
same,GI50,[6],746 nM
same,TGI,[6],2160 nM
same,GI50,[7],> 100000 nM
same,TGI,[7],> 100000 nM
same,GI50,[8],1860 nM
same,TGI,[8],4070 nM
same,GI50,[9],1290 nM
same,TGI,[9],2740 nM
same,GI50,[10],1500 nM
same,TGI,[10],3000 nM
same,GI50,[11],301 nM
same,TGI,[11],945 nM
same,GI50,[12],983 nM
same,TGI,[12],2310 nM
same,GI50,[13],1270 nM
same,TGI,[13],3570 nM
same,GI50,[14],318 nM
same,TGI,[14],1190 nM
same,GI50,[15],290 nM
same,TGI,[15],1200 nM
same,GI50,[16],1240 nM
same,TGI,[16],2760 nM
same,GI50,[17],> 100000 nM
same,TGI,[17],> 100000 nM
same,GI50,[18],3160 nM
same,TGI,[18],14700 nM
same,GI50,[19],1360 nM
same,TGI,[19],3210 nM
same,GI50,[20],2240 nM
same,TGI,[20],6720 nM
same,GI50,[21],1950 nM
same,TGI,[21],5850 nM
same,GI50,[22],1510 nM
same,TGI,[22],3000 nM
same,GI50,[23],2070 nM
same,TGI,[23],6930 nM
same,GI50,[24],1330 nM
same,TGI,[24],2700 nM
same,GI50,[25],1400 nM
same,TGI,[25],2970 nM
same,GI50,[26],1390 nM
same,TGI,[26],3560 nM
same,GI50,[27],1630 nM
same,TGI,[27],3590 nM
same,GI50,[28],> 100000 nM
same,TGI,[28],> 100000 nM
same,GI50,[29],349 nM
same,TGI,[29],1290 nM
same,GI50,[30],1040 nM
same,TGI,[30],2340 nM
same,GI50,[31],20900 nM
same,TGI,[31],> 100000 nM
same,GI50,[32],1390 nM
same,TGI,[32],3000 nM
same,GI50,[33],1320 nM
same,TGI,[33],6490 nM
same,GI50,[34],1470 nM
same,TGI,[34],3000 nM
same,GI50,[35],276 nM
same,TGI,[35],933 nM
same,GI50,[36],420 nM
same,TGI,[36],1600 nM
same,GI50,[37],590 nM
same,TGI,[37],1970 nM
same,GI50,[38],4980 nM
same,TGI,[38],24800 nM
same,GI50,[39],266 nM
same,TGI,[39],774 nM
same,GI50,[40],813 nM
same,TGI,[40],2130 nM
same,GI50,[41],346 nM
same,TGI,[41],1310 nM
same,GI50,[42],2030 nM
same,TGI,[42],5700 nM
same,GI50,[43],1430 nM
same,TGI,[43],2800 nM
same,GI50,[44],447 nM
same,TGI,[44],1680 nM
same,GI50,[45],326 nM
same,TGI,[45],1500 nM
same,GI50,[46],1350 nM
same,TGI,[46],8440 nM
same,GI50,[47],202 nM
same,TGI,[47],445 nM
same,GI50,[48],1640 nM
same,TGI,[48],4420 nM
same,GI50,[49],857 nM
same,TGI,[49],2480 nM
same,GI50,[50],258 nM
same,TGI,[50],697 nM
same,GI50,[51],1640 nM
same,TGI,[51],3370 nM
same,GI50,[52],1440 nM
same,TGI,[52],3970 nM
same,GI50,[53],1350 nM
same,TGI,[53],2750 nM
same,GI50,[54],4650 nM
same,TGI,[54],> 100000 nM
same,GI50,[55],1550 nM
same,TGI,[55],3750 nM
same,GI50,[56],1940 nM
same,TGI,[56],4790 nM
